How the values were obtained:
[1] = system: MV4-11 cells; test: Cell viability assay (CellTiter-Glo), 12 days; format: cell-based; conditions: Homo sapiens, readouts on days 4, 8 and 12, day not given
Method: Cell-based assays were used to assess the ability of test compounds to reduce cell viability in both MV4:11 (MLL-AF4 MLL) and K562 cells, which were cultured in Iscove's Modified Dulbecco's medium (Gibco, 12440061) containing […]. The assays were conducted over 12 days and the cells being split on days 4 and 8. Compound concentration response curves were performed in duplicate over the concentration range of 0.15 nM-30 uM. On day 0, the compounds or vehicle were plated in a 300 nL directly into 96 well cell culture plates (Corning, 3599) with 5000 cells/well in a volume of 100 uL. Blank wells received cell culture medium. Plates were incubated for 4 days at 37° C. with 5% CO2. On days 4 and day 8 the cells were split and incubated for a further 4 days whilst an aliquot of cells were taken for the CTG readout. For the cell splitting, 270 nL of compounds or DMSO was added to a new 96 well cell culture plate to which 90 uL of medium plus 10 uL of cells from the original assay plate (after mixing) or 100 uL of medium (Blank wells) was added. This was repeated on day 8.
Cell viability was assessed using the CellTiter-Glo® homogeneous luminescent assay kit (Promega, G9243), according to the manufacturer's instructions. This quantifies ATP, which indicates the presence of metabolically active cells. On days 4, 8 and 12, 20 ul of the remaining cell suspension was aspirated into 384-well plate (Corning 3570) to which an equal volume CellTiter-Glo reagent was. Plates were incubated for 10 minute incubation at RT prior to recording the luminescence signal using EnVision plate reader (PE, 2104). The resulting data were analyzed as follows:
Inhibition (%)=100%×(Lumvehicie−Lumsample)/(Lumvehicle−Lumblank)
where vehicle are cells treated with 0.3% DMSO, Blank is culture medium. IC50 determinations were calculated by fitting the curve using XLfit (v5.3.1.3): Y=Bottom+(Top−Bottom)/(1+10^((Log IC50−X)*HillSlope)).

[2] = target: T1, ENL YEATS domain (6×HIS ENL YEATS Domain) binding to H3K9cr peptide (Homo sapiens, UniProt Q03111); test: TR-FRET ENL Screening Assay, FRET Assay Protocol 1; conditions: H3K9cr peptide (aa1-20)
T1 construct: aa1-150; EpiCypher, 15-0069; purchased EpiCypher 15-0069
T1 sequence (Q03111 1-150): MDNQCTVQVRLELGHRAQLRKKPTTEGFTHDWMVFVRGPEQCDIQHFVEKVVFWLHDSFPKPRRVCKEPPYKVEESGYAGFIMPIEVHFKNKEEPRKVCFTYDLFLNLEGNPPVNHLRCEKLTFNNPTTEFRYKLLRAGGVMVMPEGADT
Method: Compounds of the invention were dissolved in DMSO at a concentration of 3 mM with subsequent dilutions in assay buffer (50 mM HEPES PH7.0, 150 mM NaCl, 0.05% BSA, 0.2% Pluronic F-127) such that the assay contained 1% DMSO. […] Low control (LC) wells received 5 uL of assay buffer instead of ENL protein. […] Compound concentration response curves were performed in duplicate over the concentration range of 0.15 nM-30 uM. The response at each compound concentration minus the LC value was converted to percent inhibition of the vehicle control group response (HC-LC). The relationship between the % inhibition and the compound concentration was analyzed using a four parameter logistic equation to estimate lower and upper asymptotes, the compound concentration producing 50% inhibition (IC50 value) and the slope at the mid-point location.

Structure (SMILES) | IC50 [1] [µM] | IC50 [2] [nM]
Cc1noc2cc(C(=O)Nc3cc4[nH]c(CN5CCC[C@@H]5C)cc4cn3)ccc12 [Example 1, (S)-3-methyl-N-(2-((2-methylpyrrolidin-1-yl)methyl)-1H-pyrrolo[3,2-c]pyridin-6-yl)benzo[d]isoxazole-6-carboxamide] | 0.057 | 143
Cc1nn(C)c2cc(C(=O)Nc3cc4[nH]c(CN5CCC[C@@H]5C)cc4cn3)ccc12 [Example 5] | 0.022 | 125
Cc1nn(C)c2ccc(C(=O)Nc3cc4[nH]c(CN5CCC[C@@H]5C)cc4cn3)cc12 [Example 6] | 0.061 | 133
C[C@H]1CCCN1Cc1cc2cnc(NC(=O)c3ccc4cnn(C)c4c3)cc2[nH]1 [Example 7] | 0.173 | 298
C[C@H]1CCCN1Cc1cc2cnc(NC(=O)c3ccc(-c4cnn(C)c4)cc3)cc2[nH]1 [Example 21, 4-(1-methylpyrazol-4-yl)-N-(2-[[(2S)-2-methylpyrrolidin-1-yl]methyl]-1H-pyrrolo[3,2-c]pyridin-6-yl)benzamide] | 0.301 | 250
Cc1ccc2cc(C(=O)Nc3cc4[nH]c(CN5CCC[C@@H]5C)cc4cn3)ccc2n1 [Example 22] | 0.127 | 139
C[C@H]1CCCN1Cc1cc2cnc(NC(=O)c3ccc4cc(=O)[nH]cc4c3)cc2[nH]1 [Example 23, N-(2-[[(2S)-2-methylpyrrolidin-1-yl]methyl]-1H-pyrrolo[3,2-c]pyridin-6-yl)-3-oxo-2H-isoquinoline-7-carboxamide] | 0.076 | 208
C[C@H]1CCCN1Cc1cc2cnc(NC(=O)c3ccc4oc(=O)[nH]c4c3)cc2[nH]1 [Example 24, N-(2-[[(2S)-2-methylpyrrolidin-1-yl]methyl]-1H-pyrrolo[3,2-c]pyridin-6-yl)-2-oxo-3H-1,3-benzoxazole-5-carboxamide] | 1.46 | 1090
C[C@H]1CCCN1Cc1cc2cnc(NC(=O)c3ccc(-c4ccn(C)n4)cc3F)cc2[nH]1 [Example 32] | 0.455 | 1400
C[C@H]1CCCN1Cc1cc2cnc(NC(=O)c3ccc(-c4cnn(C)c4)cc3F)cc2[nH]1 [Example 34] | 0.122 | 227
C[C@H]1CCCN1Cc1cc2cnc(NC(=O)c3ccc(-c4cn[nH]c4)cc3)cc2[nH]1 [Example 42, N-(2-[[(2S)-2-methylpyrrolidin-1-yl]methyl]-1H-pyrrolo[3,2-c]pyridin-6-yl)-4-(1H-pyrazol-4-yl)benzamide] | 0.109 | 161
Cn1ncc2cc(C(=O)Nc3cc4[nH]c(CN5CC6(COC6)C5)cc4cn3)ccc21 [Example 46] | 1.22 | 306
Cc1n[nH]c2ccc(C(=O)Nc3cc4[nH]c(CN5CCC[C@@H]5C)cc4cn3)cc12 [Example 47] | 0.128 | 144
C[C@H]1CCCN1Cc1cc2cnc(NC(=O)c3ccc4[nH]nc(C5CC5)c4c3)cc2[nH]1 [Example 48] | 0.057 | 140
C[C@H]1CCCN1Cc1cc2cnc(NC(=O)c3ccc(-c4cnn(C(F)F)c4)cc3)cc2[nH]1 [Example 50] | 0.1 | 158
COCCn1cc(-c2ccc(C(=O)Nc3cc4[nH]c(CN5CCC[C@@H]5C)cc4cn3)cc2)cn1 [Example 51] | 0.077 | 187
C[C@H]1CCCN1Cc1cc2cnc(NC(=O)c3ccc(-c4cnn(CC#N)c4)cc3)cc2[nH]1 [Example 52] | 0.184 | 154
C[C@H]1CCCN1Cc1cc2cnc(NC(=O)c3ccc4c(C(F)F)nn(C)c4c3)cc2[nH]1 [Example 55] | 0.058 | 116
C[C@H]1CCCN1Cc1cc2cnc(NC(=O)c3ccc4c(C5CC5)nn(C)c4c3)cc2[nH]1 [Example 56] | 0.044 | 78

Structure (SMILES) | IC50 [1] [µM] | IC50 [2] [nM]
Cc1cc2cc(C(=O)Nc3cc4[nH]c(CN5CCC[C@@H]5C)cc4cn3)ccc2nn1 [Example 57] | 0.314 | 272
C[C@H]1CCCN1Cc1cc2cnc(NC(=O)c3ccc4c(N)nn(C)c4c3)cc2[nH]1 [Example 60] | 0.182 | 330
C[C@H]1CCCN1Cc1cc2cnc(NC(=O)c3ccc4c(CO)nccc4c3)cc2[nH]1 [Example 66] | 0.094 | 85
Cc1n[nH]c2cc(C(=O)Nc3cc4[nH]c(CN5CCC[C@@H]5C)cc4cn3)ccc12 [Example 67] | 0.149 | 125
C[C@H]1CCN1Cc1cc2cnc(NC(=O)c3ccc4[nH]nc(C5CC5)c4c3)cc2[nH]1 [Example 73, 3-cyclopropyl-N-(2-[[(2S)-2-methylazetidin-1-yl]methyl]-1H-pyrrolo[3,2-c]pyridin-6-yl)-1H-indazole-5-carboxamide] | 0.684 | 238
C[C@H]1CCCN1Cc1cc2cnc(NC(=O)c3ccc4c(N)nccc4c3)cc2[nH]1 [Example 82] | 0.454 | 33
CNc1nn(C)c2cc(C(=O)Nc3cc4[nH]c(CN5CCC[C@@H]5C)cc4cn3)ccc12 [Example 85] | 0.183 | 176
C[C@H]1CCCN1Cc1cc2cnc(NC(=O)c3ccc4c(N(C)C)nn(C)c4c3)cc2[nH]1 [Example 86] | 0.482 | 209
COc1cc2ccc(C(=O)Nc3cc4[nH]c(CN5CCC[C@@H]5C)cc4cn3)cc2cn1 [Example 88] | 0.623 | 141
C[C@H]1CCCN1Cc1cc2cnc(NC(=O)c3ccc4c(c3)c(N)nn4C)cc2[nH]1 [Example 92] | 0.134 | 210
C[C@H]1CCCN1Cc1cc2cnc(NC(=O)c3ccc4c(c3)[nH]c(=O)n4C)cc2[nH]1 [Example 93] | 0.181 | 97
COCCNc1nn(C)c2cc(C(=O)Nc3cc4[nH]c(CN5CCC[C@@H]5C)cc4cn3)ccc12 [Example 94, 3-[(2-methoxyethyl)amino]-1-methyl-N-(2-[[(2S)-2-methylpyrrolidin-1-yl]methyl]-1H-pyrrolo[3,2-c]pyridin-6-yl)indazole-6-carboxamide] | 0.365 | 118
C[C@H]1CCCN1Cc1cc2cnc(NC(=O)c3ccc4c(NCC(F)F)nn(C)c4c3)cc2[nH]1 [Example 95, 3-[(2,2-difluoroethyl)amino]-1-methyl-N-(2-[[(2S)-2-methylpyrrolidin-1-yl]methyl]-1H-pyrrolo[3,2-c]pyridin-6-yl)indazole-6-carboxamide] | 0.704 | 160
CNc1cc2ccc(C(=O)Nc3cc4[nH]c(CN5CCC[C@@H]5C)cc4cn3)cc2cn1 [Example 97] | 0.321 | 572
C[C@H]1CCCN1Cc1cc2cnc(NC(=O)c3ccc4c(c3)CNC(=O)N4C)cc2[nH]1 [Example 98] | 1.06 | 330
Cc1ncc2cc(C(=O)Nc3cc4[nH]c(CN5CCC[C@@H]5C)cc4cn3)ccn12 [Example 99, 3-methyl-N-(2-[[(2S)-2-methylpyrrolidin-1-yl]methyl]-1H-pyrrolo[3,2-c]pyridin-6-yl)imidazo[1,5-a]pyridine-7-carboxamide] | 0.468 | 186
CC(c1ccc(C(=O)Nc2cc3[nH]c(CN4CCC[C@@H]4C)cc3cn2)cc1)c1cccnc1 (stereo partly drawn) [compound 30] |  | 763
Cc1n[nH]c2ccc(C(=O)Nc3cnc4cc(CN5CCC[C@@H]5C)[nH]c4c3)c(F)c12 [compound 106] |  | 170

— patent US20230027198A1 (The Rockefeller University, priority 2019, published 2023)
